{"source": "patent US20180296542A1", "about": "“IMINOSUGARS FOR IMPROVING BONE MINERAL DENSITY IN BONE DISEASE” (Saint Louis University, priority 2015, published 2018)", "key": {"[1]": {"system": "TNSALP-null (Akp2^−/−) mice, in vivo model of infantile HPP (wild-type, heterozygous, homozygous)", "experiment": "MicroCT bone mineral density of femur cortical bone after one month of Miglustat (Example 1)", "conditions": "for Mean/Density [mg HA/ccm] of TV (Apparent) (BMD), individual mice: femur diaphysis cortical bone, one value per mouse", "description": "-null (Akp2^-/-) mice served as an in vivo model of infantile HPP to analyze the effects of Miglustat as a treatment for HPP through BMD measurements. […] Resembling patients with HPP, elevated substrate concentrations of PEA, PPi, and PLP were found in urine samples from knock-out mice. […] All experiments were conducted with the highest standards of humane animal care at Saint Louis University under an approved IACUC protocol. Mice were genotyped as wild-type, heterozygous, or homozygous through DNA extraction, polymerase chain reaction (PCR), and gel electrophoresis. After DNA was extracted from an ear tissue sample, PCR was used to generate copies of the DNA for gel electrophoresis (2% agarose and Tris-Acetate-EDTA (TAE) buffer). The following primers were used: [NT] ID NO:1), [NT] ID NO:2), [NT] ID NO:3, wild-type allele: 160 bp, mutant allele: 195 bp). At the age of one month, mice were administered 100 μL injections of phosphate-buffered saline (PBS) with 0 mg/kg, 400 mg/kg, or 1200 mg/kg of Miglustat (250 mg/mL) to the peritoneal cavity for gradual diffusion of the drug. Mice were massed each day to adjust Miglustat dosages to body weight. Intraperitoneal injections (IP) continued daily for one month before mice were euthanized with CO2 at the age of two months. Mice were on a Pyridoxine Supplement Diet (“Vitamin B6 Diet”) to prevent seizures. […] (Systems EngineeringTM) was provided every alternating day to prevent dehydration. Urine samples were collected once a week and blood samples were collected from cheek tissue at the beginning and end of treatment. Full-body ventral and side-view x-rays were taken after euthanizing the mice. The left anatomical legs were dissected to obtain the femoral bones. Femurs were then frozen before being placed in 10% formalin the day prior to microCT scanning. Four bones were inserted into a gel cast (2.5% agarose and TAE buffer) at a time and covered with 2.5% agarose and TAE buffer to create gel capsules that were placed in sample tubes (diameter: 11.5 mm, height: 75 mm) for microCT scanning Cortical bone scans (voxel size: 12 μm) were performed at the diaphysis (femoral shaft) using a SCANCO μCT 35 system (SCANCO Medical; Brü[…], Switzerland). MicroCT scans were analyzed using SCANCO Medical microCT software to produce three dimensional reconstructions of the bones and determine bone mineral density (BMD) as the mean/density [mg HA/ccm] of total volume (TV) (Apparent). The total length of each bone was measured as the distance from the greater trochanter to the distal end. Only the middle 20% of each femur was accounted for during cortical bone analysis. Statistical analysis included calculating the average mean/density [mg HA/ccm] of TV (Apparent) and standard error for each treatment group to determine the estimated standard deviation of the statistics. Standard deviation and standard error were not calculated for homozygous mice due to count values below three. Full-body ventral and side x-rays were taken and microCT scans were performed on the femurs of each mouse. The bone mineral densities of the femurs were recorded in units of hydroxyapatite density as the mean/density [mg HA/ccm] of TV (apparent). The average bone mineral densities (average mean/density [mg HA/ccm] of TV (apparent) were then calculated for each treatment group. Statistical analysis, including standard deviation and standard error, was only performed for the wild-types and heterozygotes due to insufficient data for the homozygous mice. A minimum of three mice were required for statistical analysis."}, "[2]": {"system": "TNSALP-null (Akp2^−/−) mice (WT, Het, KO)", "experiment": "Growth (percent change in weight) and toxicity in treated mice (Example 2)", "type": "in vivo", "description": "At the age of one month, mice were administered 100 μL injections of phosphate-buffered saline (PBS) with 0 mg/kg, 400 mg/kg, or 1200 mg/kg of Miglustat (250 mg/mL) to the peritoneal cavity for gradual diffusion of the drug. Mice were massed each day to adjust Miglustat dosages to body weight. Intraperitoneal injections (IP) continued daily for one month before mice were euthanized with CO2 at the age of two months. Mice were on a Pyridoxine Supplement Diet (“Vitamin B6 Diet”) to prevent seizures. NAPA NECTAR™ (Systems Engineering™) was provided every alternating day to prevent dehydration. Urine samples were collected once a week and blood samples were collected from cheek tissue at the beginning and end of treatment.\nMice were obtained, bred and genotyped as described above. Five mice of each genotype (Wild-type (WT), heterozygous (Het), and homozygous (KO)) were included in each treatment group (i.p. administration of PBS, 400 mg/kg Miglustat, and 1200 mg/kg Miglustat as described above). A total of 44 mice were analyzed (1 Akp2^−/− homozygous mouse was omitted in the PBS group). Mice were scanned using microCT and analyzed as described above. Cortical bone in the middle 20% of bone length from trochanter to distal condyles in the femur was scanned and cortical thickness and bone mineral density were obtained. […]"}, "[3]": {"conditions": "homozygous mice, Miglustat 400 mg/kg"}}, "note": "Several values for one entry are separate records, joined by “and”; a condition that tells them apart may be missing. Equal values may be shown once. Entries after “also recorded” stand apart in the source; their conditions may differ.", "data": [{"molecule": "CCCCN1C[C@H](O)[C@@H](O)[C@H](O)[C@H]1CO", "note": "[Miglustat, (2R,3R,4R,5S)-1-butyl-2-(hydroxymethyl)piperidine-3,4,5-triol]", "values": [{"measurement": "Average BMD with Miglustat dosage versus PBS groups (in words)", "setting": "[1]; across genotypes, except wild-type mice at 1200 mg/kg, one month of treatment, 1200 mg/kg", "value": "higher average BMDs; also recorded: BMD increased with Miglustat dosage; also recorded: higher average BMD values"}, {"measurement": "Average BMD versus PBS heterozygotes (in words)", "setting": "[1]; heterozygous mice, Miglustat 400 mg/kg", "value": "slight improvement; also recorded: higher average BMD value"}, {"measurement": "Mean/Density [mg HA/ccm] of TV (Apparent) (BMD), individual mice", "setting": "[1]; heterozygous mice, Miglustat 400 mg/kg IP daily for one month", "value": "983.17 mg HA/ccm and 937.07 mg HA/ccm and 968.62 mg HA/ccm"}, {"measurement": "Average Mean/Density [mg HA/ccm] of TV (Apparent) (average BMD)", "setting": "[1]; heterozygous mice, Miglustat 400 mg/kg, n=3, ± standard error", "value": "962.95±13.61 mg HA/ccm and 962.95 mg HA/ccm"}, {"measurement": "Average BMD versus PBS heterozygotes and PBS wild-types (in words)", "setting": "[1]; heterozygous mice, Miglustat 1200 mg/kg", "value": "even greater improvement; also recorded: match or even surpass; also recorded: matched and surpassed"}, {"measurement": "Mean/Density [mg HA/ccm] of TV (Apparent) (BMD), individual mice", "setting": "[1]; heterozygous mice, Miglustat 1200 mg/kg IP daily for one month", "value": "980.88 mg HA/ccm and 984.82 mg HA/ccm and 979.78 mg HA/ccm and 1006.65 mg HA/ccm"}, {"measurement": "Average Mean/Density [mg HA/ccm] of TV (Apparent) (average BMD)", "setting": "[1]; heterozygous mice, Miglustat 1200 mg/kg, n=4, ± standard error", "value": "988.03±6.30 mg HA/ccm and 988.03 mg HA/ccm"}, {"measurement": "Differences in mineralization in microCT scans between treatments", "setting": "[1]; heterozygous mice, PBS vs 400 vs 1200 mg/kg Miglustat", "value": "not discernable"}, {"measurement": "Mean/Density [mg HA/ccm] of TV (Apparent) (BMD), individual mice", "setting": "[1]; homozygous (Akp2^−/−) mice, Miglustat 400 mg/kg IP daily for one month", "value": "881.08 mg HA/ccm and 1054.98 mg HA/ccm"}, {"measurement": "Average Mean/Density [mg HA/ccm] of TV (Apparent) (average BMD)", "setting": "[1]; homozygous (Akp2^−/−) mice, Miglustat 400 mg/kg, n=2", "value": 968.03, "unit": "mg HA/ccm"}, {"measurement": "Average BMD versus knockouts on PBS (in words)", "setting": "[1]; [3]", "value": "substantial difference; also recorded: higher average BMD"}, {"measurement": "Cortical bone mineralization at the diaphysis in microCT scans", "setting": "[1]; [3]", "value": "improper cortical bone mineralization"}, {"measurement": "Average BMD versus other treatment groups (in words)", "setting": "[1]; wild-type mice, Miglustat 400 mg/kg", "value": "greater; also recorded: increased; also recorded: highest average BMD"}, {"measurement": "Mean/Density [mg HA/ccm] of TV (Apparent) (BMD), individual mice", "setting": "[1]; wild-type mice, Miglustat 400 mg/kg IP daily for one month", "value": "1000.00 mg HA/ccm and 990.58 mg HA/ccm and 991.31 mg HA/ccm and 1004.30 mg HA/ccm and 995.88 mg HA/ccm"}, {"measurement": "Average Mean/Density [mg HA/ccm] of TV (Apparent) (average BMD)", "setting": "[1]; wild-type mice, Miglustat 400 mg/kg, n=5, ± standard error", "value": "996.41±2.60 mg HA/ccm and 996.41 mg HA/ccm"}, {"measurement": "Average BMD versus PBS wild-type group (in words)", "setting": "[1]; wild-type mice, Miglustat 1200 mg/kg", "value": "no change"}, {"measurement": "Mean/Density [mg HA/ccm] of TV (Apparent) (BMD), individual mice", "setting": "[1]; wild-type mice, Miglustat 1200 mg/kg IP daily for one month", "value": "973.20 mg HA/ccm and 985.09 mg HA/ccm and 969.63 mg HA/ccm and 967.00 mg HA/ccm"}, {"measurement": "Average Mean/Density [mg HA/ccm] of TV (Apparent) (average BMD)", "setting": "[1]; wild-type mice, Miglustat 1200 mg/kg, n=4, ± standard error", "value": "974.48±3.63 mg HA/ccm and 974.48 mg HA/ccm"}, {"measurement": "Toxicity", "setting": "[2]; 400 mg/kg/day and 1,200 mg/kg/day delivered intraperitoneally", "value": "no toxicity was observed"}, {"measurement": "Growth as measured by percent change in weight", "setting": "[2]; high doses of Miglustat, particularly notable in WT and Het mice, FIG. 12", "value": "impeded growth"}]}]}
